The subject of one series is Hep G2. Description: MTT antiproliferative assay on Hep G2 cells. To be noted: Homo sapiens, HepG2, 72 h. Type of series: cell-based. From the text:
(§1) MTT was purchased from DUCHEFA Biochemie ([…]). Sunitinib, and sodium dodecyl sulfate, bovine serum albuminwere obtained from Sigma Aldrich (Singapore). Sorafenib was purchase from Ontario Chem. Fetal bovine serum (FBS) was obtained from Invitrogen. Human hepatocellular carcinoma cells (HuH-7 and Hep G2), and human diploid fibroblast strain (IMR 90). HuH7 was obtained as gifts from Dr Ho Han Kiat, Department of Pharmacy, NUS. IMR90 and Hep G2 were purchased from American Type Culture Collection (ATCC). HuH-7 cells were cultured in DMEM (Dulbecco's Modified Eagle Medium, high glucose) with 10% v/v fetal bovine serum (FBS), 100 mg/L penicillin G and 100 mg/L streptomycin. IMR 90 cell were cultured in EMEM (Eagle's Minimum Essential Medium), with 10% v/v FBS and 100 mg/L penicillin G and 100 mg/L streptomycin. The cells were sub-cultured when HuH7 or Hep G2 reached a density of 70-80×10^5 cell/T75 flask, and IMR 90 reached 20×10^5 cell/T75 flask. Cells were used within 2-10 passages for viability experiments.
(§2) The anti-proliferative activity of the test compounds were determined by the MTT assay. An aliquot (200 μL, 3×10^4 cells/mL for HuH7, 3.75×10^4 cells/mL for Hep G2, and 2×10^4 cells/mL for IMR 90) of medium was added to each well of the microtitre plate. […] The existing medium was removed from each well and replaced by fresh medium (200 μL) containing a known concentration of test compound. The final concentration of DMSO in each well was maintained at 0.5% v/v. (1% v/v was also utilized if the compounds were not soluble) The test compounds were incubated with the cells for another 72 h at 37 deg C., 5% CO2. The medium was then removed from the well and replaced with FBS free medium (200 μL) and MTT (50 μL of 2 mg/mL solution in phosphate buffer saline, pH 7.4). The phosphate buffer saline comprises 10 mM of potassium phosphate and 137 mM sodium chloride. After incubation (3 h) at 37 deg C., 5% CO2, the supernatant was removed and a solution of 200 μL DMSO and 25 μL Sorenson buffer (0.1 M glycine, 0.1 M sodium chloride, adjusted to pH 10.5 with 0.1 M sodium hydroxide) was added to dissolve the formazan crystals in each well. Vehicle control were cells grown in 1% v/v DMSO/Medium for 72 h, 37 deg C., 5% CO2 while blank controls were wells that contained only 200 μL DMSO and 25 μL Sorenson buffer. Absorbances were measured at 570 nm on a microplate reader (Tecan, Infinite 200). The viability of cells at a given concentration of test compound was determined from the expression:
(§3) [formula] where abs_compound=absorbance of wells containing cells and test compound, abs_vehicle (Not the same as above. Change to abs_vehicle)=absorbance of vehicle control and abs_blank=absorbance of blank control.
(§4) Each concentration of test compound was evaluated at least 3 times on separate occasions, and two different stock solution were used. The IC50 value (concentration that inhibited 50% of cell growth) was determined from the sigmoidal curve obtained by plotting percentage viability versus logarithmic concentration of test compound using GraphPad Prism 5 (San Diego, USA).
(Tetrazolium assays rely on reduction of a dye to a coloured formazan, in cell work by metabolically active cells.)

A further series deals with IMR 90. Description: MTT antiproliferative assay on non-malignant IMR 90 fibroblasts. The class given is cell-based. Particulars: non-malignant human lung fibroblast IMR 90, MTT, 72 h.
Text: as §1, §2, §3, §4

A further series deals with CYP1A1. Description: EROD assay, induction of CYP1A1 activity in HuH7 cells. Type of series: cell-based, human. Particulars: for induction of CYP450 (CYP1A1, EROD) activity: broad range of concentrations spanning growth inhibitory concentrations, FIG. 2. From the text:
The induction of CYP1A1 activity was monitored by the 7-ethoxyresorufin O-deethylase (EROD) assay. EROD is a CYP1A1 enzyme and induction of its activity would result in the formation of more resorufin, a fluorescent compound. By monitoring resorufin levels in cells that are exposed to test compound and comparing the levels with those in untreated cells, it is possible to identify compounds that induce EROD activity.
Readings were taken at λexcitation of 530 nm and λemission of 590 nm on a fluorometer (Name the plate reader). Background fluorescence of the test compound was determined at the same wavelengths to take into account its contribution to the observed readings. Readings of “blank” wells that contained only media and “control” wells with only HuH7 cells in media (with 1% DMSO) were also determined. β-napthoflavone (BNF), a known inducer of CYP1A1 activity (give ref) was used as a positive control. The extent to which EROD activity was induced is given by the expression: Degree of induction=(FCells+Test Compound−FBlank)/(FControl−FBlank)
Where Fcells+test compound=fluorescence of wells containing treated cells; FBlank=fluorescence of well containing media only; FControl=fluorescence readings of wells containing untreated cells. The test compounds were not fluorescent at the excitation and emission wavelengths used in this assay. Two separate determinations were made for each concentration of test compound.

The subject of a further series is phospho-STAT3 (Tyr 705). Description: Detection of phosphorylated STAT3 by immunoblot in HepG2. The class given is cell-based, human. To be noted: FIG. 3. On the procedure: Rabbit polyclonal antibodies to STAT3 was obtained from Santa Cruz Biotechnology (Santa Cruz, Calif.), and rabbit monoclonal antibodies against phospho-STAT3 (Tyr 705) were purchased from Cell Signaling Technology (Beverly, Mass.).
For detection of phopho-STAT 3 and STAT 3, treated whole-cell extracts were lysed in lysis buffer (20 mM Tris (pH 7.4), 250 mM NaCl, 2 mM EDTA (pH 8.0), 0.1% Triton X-100, 0.01 mg/ml aprotinin, 0.005 mg/ml leupeptin, 0.4 mM PMSF, and 4 mM NaVO4). Lysates were then spun at 14,000 rpm for 10 min to remove insoluble material and resolved on a 7.5% SDS gel. After electrophoresis, the proteins were electrotransferred to a nitrocellulose membrane, blocked with 5% nonfat milk, and probed with anti-phospho-STAT 3 and anti-STAT 3 antibodies (1:1,000) overnight at 4° C. The blot was washed, exposed to HRP-conjugated secondary antibodies for 1 hr, and finally examined by chemiluminescence (ECL; GE Healthcare, Little Chalfont, Buckinghamshire, UK).
On the technique in general: Immunoblotting shows a protein as a band on a membrane.

The test system of a further series is AFP mRNA. Description: Determination of AFP mRNA levels by quantitative real-time PCR in HuH7 cells. The class given is cell-based, human. Particulars: 10 μM, 24 h, FIG. 1. From the text:
The primer sequences were: […] reverse); [NT] (Human GADPH forward); [NT] (Human GADPH reverse).
In general terms: Real-time PCR tracks product formation cycle by cycle.

The next series has as its system HuH7 cells. Description: MTT antiproliferative (growth inhibition) assay on HuH7 cells. Type of series: cell-based, human. To be noted: Homo sapiens, Huh-7, MTT. The essentials: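 Cells were exposed to compound for 72 h at 37° C, 5% CO2, with 0.5% v/v DMSO (1% if poorly soluble), then given MTT for 3 h. Formazan was dissolved in DMSO/Sorenson buffer and absorbance read at 570 nm; IC50 from sigmoidal fits of % viability versus log concentration.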

The nature of a further series: PAMPA permeability (Pe). Type of series: physicochemical. To be noted: for Pe (×10^−6 cm/s): 1% lecithin in dodecane, mean of 3 determinations. On the procedure:
(§5) Solubility and PAMPA permeability (Pe) are important physicochemical indicators of drug-like character. Determination of aqueous solubility was carried out on Multiscreen® Solubility filter plates (Millipore-MSSLBPC10) from Millipore Corporation (MA, USA). The protocol (PC2445EN00, Millipore Corporation) was followed. Pe determinations were carried out on MultiScreen-IP PAMPA assay (donor) plates (MAIPNTR10) and MultiScreen Receiver Plates (MATRNPS50) from Millipore Corporation (USA) with 1% lecithin (L-α-phosphatidylcholine from lyophilized powder of egg yolk, Sigma Aldrich, USA) in dodecane (ReagentPlus®, Sigma Aldrich, USA) as lipid barrier.

Series [1] can be described thus: Aqueous solubility on Multiscreen Solubility filter plates. Type of series: physicochemical. Particulars: aqueous solution on Multiscreen Solubility filter plates, aqueous buffer, kinetic from dmso stock, mean of 3 determinations; for solubility at 3 h: pH 7.4, agitation time 3 h; for solubility at 24 h: pH 7.4, agitation time 24 h. The protocol: as §5
The mark [2] stands for this setting: 72 h (Table 9), read-out: IC50 (μM) HuH7.
Setting [3] is: 72 h incubation, mean and SD of 3 or more independent determinations (Tables 1-8), read-out: IC 50.

The record followed here is patent US8877946B2, “Benzylidene-indolinone compounds and their medical use” (National University of Singapore, priority 2011, dated 2014).

Values after ≈ are worked out from the molar mass of the structure shown. Where two headings read alike, the source gives them in different places.

As for `CN1C(=O)/C(=C/c2cccc(C(F)(F)F)c2)c2ccc(Cl)cc21` [Compound 1-10, (E) 6-Chloro-1-methyl-3-(3-trifluoromethyl-benzylidene)-1,3-dihydro-indol-2-one, reference compound], the IC50 with Hep G2 was determined as 0.94 ± 0.18 µM; in the series with IMR 90, 9.23 ± 0.88 µM; in the series on HuH7 cells (setting [2]), 0.46 ± 0.06 µM; in the series on HuH7 cells (setting [3]) it was 0.46 ± 0.06 µM. The “induction of EROD activity at 0.05 μM” value in the series on CYP1A1 (0.05 μM, declined at higher concentrations) is listed as “unusual (but reproducible) induction”. Also, the “induction of CYP450 (CYP1A1, EROD) activity” value (“induction of CYP450” below) in the series on CYP1A1 was “did not induce CYP450 activity”. The “effect on p-STAT3 levels (constitutive STAT3 activation)” value (from here on “effect on p-STAT3 levels”) in the series on phospho-STAT3 (Tyr 705) is listed as “did not”. Besides, the “effect on AFP mRNA levels” value in the series on AFP mRNA is recorded as “reduced AFP mRNA by almost half”.

As for `CNS(=O)(=O)c1cccc(/C=C2/C(=O)Nc3cc(Cl)ccc32)c1` [Compound 1-18, (E)-3-(6-Chloro-2-oxo-1,2-dihydro-indol-3-ylidenemethyl)-N-methyl-benzenesulfonamide], the IC50 in the series with Hep G2 came out at 3.99 ± 0.43 µM; with IMR 90, 2.1 µM; in the series with HuH7 cells (setting [2]), 0.54 ± 0.06 µM; in the series on HuH7 cells (setting [3]) it was 0.54 ± 0.06 µM. Moreover, the “Pe (×10^−6 cm/s)” value is reported as 18.3 ×10^−6 cm/s in the series “PAMPA permeability (Pe)” (pH 7.4, 6 h) and 12.3 ×10^−6 cm/s in the series “PAMPA permeability (Pe)” (pH 7.4, 16 h). Further, the “induction of CYP450” value with CYP1A1 is given as “did not induce CYP450 activity”. In the series with phospho-STAT3 (Tyr 705), the “effect on p-STAT3 levels” value is given as “reduced p-STAT3 levels”. For the same molecule, the “effect on AFP mRNA levels” value with AFP mRNA was “no significant change in AFP mRNA levels”. In addition, the concentration in solution in series [1] (solubility at 3 h) was 8.85 µM (≈ 3.09 µg/mL). For the same molecule, the concentration in solution in series [1] (solubility at 24 h) came to 2.28 µM (≈ 0.795 µg/mL).

With `CNS(=O)(=O)c1cccc(/C=C2/C(=O)Nc3cc(F)ccc32)c1` [Compound 3-10, (E)-3-(6-Fluoro-2-oxo-1,2-dihydro-indol-3-ylidenemethyl)-N-methyl-benzenesulphonamide], the IC50 was found to be 4.4 ± 0.43 µM with Hep G2, 10.4 ± 0.23 µM in the series on IMR 90, 0.48 ± 0.01 µM in the series on HuH7 cells (setting [2]) and 0.48 ± 0.01 µM in the series with HuH7 cells (setting [3]). Besides, the “decline of Pe with time” value in the series “PAMPA permeability (Pe)” (6 h to 16 h) was “½”. Besides, the “Pe (×10^−6 cm/s)” value is listed as 12.9 ×10^−6 cm/s in “PAMPA permeability (Pe)” (pH 7.4, 6 h) and 5.95 ×10^−6 cm/s in “PAMPA permeability (Pe)” (pH 7.4, 16 h). In addition, the “induction of CYP450” value in the series on CYP1A1 is “did not induce CYP450 activity”. Further, in series [1], the solubility (in general, the dissolved amount per volume that the medium holds) at 3 h is 37.6 µM (≈ 12.5 µg/mL). Also, the solubility at 24 h in series [1] amounted to 6.32 µM (≈ 2.1 µg/mL).

On to `O=C1Nc2ccc(F)c(F)c2/C1=C/c1cccc(C(F)(F)F)c1` [Compound 6-6, (Z)-4,5-Difluoro-3-(3-trifluoromethyl-benzylidene)-1,3-dihydro-indol-2-one], for which the IC50 worked out at 0.96 ± 0.11 µM in the series with Hep G2, 8.1 ± 0.73 µM in the series on IMR 90, 0.54 ± 0.07 µM with HuH7 cells (setting [2]) and 0.54 ± 0.07 µM in the series on HuH7 cells (setting [3]). Further, the “induction of CYP450” value with CYP1A1 is “did not induce CYP450 activity”. Also, the “effect on p-STAT3 levels” value with phospho-STAT3 (Tyr 705) was “did not”. Further, the “effect on AFP mRNA levels” value in the series on AFP mRNA is “reduced levels to almost the same extent as 1-10”.
